This assay concerns the target T1, KRAS G12C (GMPPNP-loaded) and cRAF Ras-binding domain (Homo sapiens, UniProt P01116, C118S/C51S/C80L/G12C).
T1 construct: truncated version comprising amino acids 1-169
Put plainly: Inhibition of KRAS G12C and cRAF binding (AlphaScreen). The conditions noted are these: KRAS G12C preloaded with GTP analogue GMPPNP, 2 hours preincubation. An excerpt:
The ability of compounds of Formula (A), Formula (B) and Formula (C), and pharmaceutically acceptable salts and/or isotopologues thereof, to inhibit activity of the GTP-bound form of KRAS G12C can be tested using methods such as the in vitro assay described in Example 179 below. Example 179 describes determining, for various compounds, the half-maximal inhibition (IC50) of KRAS G12C loaded with GTP analogue GMPPNP from binding to cRaf, as the Ras-binding domain (RBD). Example 180 describes determining, for various compounds, the half-maximal inhibition (IC50) of KRAS G12C loaded with GTP analogue GMPPNP from binding to PI3Kα, as the Ras-binding domain (RBD). Example 181 describes testing compounds for the ability to inhibit cell viability in MCF10A G12C/A59G mutant, which abrogates GTPase activity, thus preventing hydrolysis of GTP to GDP.
The AlphaScreen technology was used to determine IC50s for compound inhibition of KRAS G12C (present as the Cys-light (C51S, C80L and C118S), truncated version comprising amino acids 1-169) and cRAF interaction. Compounds were diluted in 100% DMSO and each compound concentration was spotted at 200 nl/well onto low volume, white 384 well plates. The KRAS G12C contained a biotin-AviTag and the cRaf, as Ras-binding domain (amino acids 50-131, RBD), was GST-tagged. KRAS G12C was preloaded with the GTP analogue Guanosine 5′-[β,γ-imido]triphosphate (GMPPNP). The KRAS G12C was diluted in 25 mM Hepes, pH 7.4, 150 mM NaCl, 5 mM MgCl2, 0.01% TritonX-100 and 10 μM GMPPNP and added at 10 ul/well to compound-spotted plates resulting in a DMSO concentration of 2%. Plates were incubated for 2 hours. A mixture of RBD and the AlphaScreen streptavidin donor and glutathione acceptor beads diluted in 25 mM Hepes, pH 7.4, 150 mM NaCl, 5 mM MgCl2, 0.01% TritonX-100 and 2% DMSO was then added at 10 ul/well and incubated for 60-90 minutes before the samples were read for emission at 570 nm after excitation of the donor beads at 680 nm. All incubations were performed at room temperature. The final top compound concentration was 50 μM with 1:3 titrations for 10-point dose response curves. Final assay conditions were 0.5 nM KRAS G12C, 0.75 nM RBD and 5 μg/ml each of AlphaScreen donor and acceptor beads. IC50s were determined using nonlinear regression fit of [inhibitor] vs. response (4 parameters). […]
T1 sequence (P01116 1-169 isoform P01116-2 G12C/C51S/C80L/C118S): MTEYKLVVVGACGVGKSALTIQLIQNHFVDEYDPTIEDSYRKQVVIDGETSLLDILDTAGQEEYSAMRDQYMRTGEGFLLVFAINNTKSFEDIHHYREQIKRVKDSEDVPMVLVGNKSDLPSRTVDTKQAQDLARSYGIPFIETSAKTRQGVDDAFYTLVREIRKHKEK
Broadly, the IC50 is the concentration at which inhibition is half-maximal. Read a high IC50 as weaker potency in that assay. Regarding `Cc1noc(/C=C/C(=O)N2CC[C@@H](N(C)c3nc(OC[C@@]45CCCN4C[C@H](F)C5)nc4c(F)c(-c5nc(N)cc(C)c5C5CC5)ncc34)C2)n1` [Example 11, (E)-1-((R)-3-((7-(6-amino-3-cyclopropyl-4-methylpyridin-2-yl)-8-fluoro-2-(((2R,7aS)-2-fluorotetrahydro-1H-pyrrolizin-7a(5H)-yl)methoxy)pyrido[4,3-d]pyrimidin-4-yl)(methyl)amino)pyrrolidin-1-yl)-3-(3-methyl-1,2,4-oxadiazol-5-yl)prop-2-en-1-one], the half-inhibitory concentration (IC50) is < 10 nM.

Take `C=CC(=O)N1CC[C@@H](N(C)c2nc(OC[C@@]34CCCN3C[C@H](F)C4)nc3c(F)c(-c4cc(O)cc(Cl)c4C4CC4)ncc23)C1` [Example 12, 1-((R)-3-((7-(3-chloro-2-cyclopropyl-5-hydroxyphenyl)-8-fluoro-2-(((2R,7aS)-2-fluorotetrahydro-1H-pyrrolizin-7a(5H)-yl)methoxy)pyrido[4,3-d]pyrimidin-4-yl)(methyl)amino)pyrrolidin-1-yl)prop-2-en-1-one]: the half-inhibitory concentration (IC50) is < 10 nM.

`Cc1cc(N)nc(-c2ncc3c(N4CCN(C#N)[C@@H](CC#N)C4)nc(OC[C@@]45CCCN4C[C@H](F)C5)nc3c2F)c1C(F)(F)F` [Example 13, (S)-4-(7-(6-amino-4-methyl-3-(trifluoromethyl)pyridin-2-yl)-8-fluoro-2-(((2R,7aS)-2-fluorohexahydro-1H-pyrrolizin-7a-yl)methoxy)pyrido[4,3-d]pyrimidin-4-yl)-2-(cyanomethyl)piperazine-1-carbonitrile] yielded a half-inhibitory concentration (IC50) of 10 to 100 nM.

As to `C=CC(=O)N1CC[C@@H](N(C)c2nc(OC[C@@]34CCCN3C[C@H](F)C4)nc3c(F)c(-c4cc(O)ccc4C4CC4)ncc23)C1` [Example 31, 1-((R)-3-((7-(2-cyclopropyl-5-hydroxyphenyl)-8-fluoro-2-(((2R,7aS)-2-fluorotetrahydro-1H-pyrrolizin-7a(5H)-yl)methoxy)pyrido[4,3-d]pyrimidin-4-yl)(methyl)amino)pyrrolidin-1-yl)prop-2-en-1-one], the IC50 is 10 to 100 nM.

The molecule `C=CC(=O)N1CC[C@@H](N(C)c2nc(OCC34CCCN3CCC4)nc3c2CC(C)C(c2nc(N)cc(C)c2C(F)(F)F)C3)C1` (stereo partly drawn) [Example 32, 1-((3R)-3-((7-(6-amino-4-methyl-3-(trifluoromethyl)pyridin-2-yl)-2-((hexahydro-1H-pyrrolizin-7a-yl)methoxy)-6-methyl-5,6,7,8-tetrahydroquinazolin-4-yl)(methyl)amino)pyrrolidin-1-yl)prop-2-en-1-one] registered an IC50 of 10 to 100 nM.

As for `CN(CC1CN(C(=O)/C=C/c2nc(C(C)(C)O)no2)C1)c1nc(OC[C@@]23CCCN2C[C@H](F)C3)nc2c(F)c(-c3nc(N)cc4cccc(F)c34)ncc12` [Example 35, (E)-1-(3-(((7-(3-amino-8-fluoroisoquinolin-1-yl)-8-fluoro-2-(((2R,7aS)-2-fluorohexahydro-1H-pyrrolizin-7a-yl)methoxy)pyrido[4,3-d]pyrimidin-4-yl)(methyl)amino)methyl)azetidin-1-yl)-3-(3-(2-hydroxypropan-2-yl)-1,2,4-oxadiazol-5-yl)prop-2-en-1-one], the IC50 was < 10 nM.

In the case of `CN(C)CC#CC(=O)N1CC[C@@H](N(C)c2nc(OC[C@@]34CCCN3C[C@H](F)C4)nc3c(F)c(-c4nc(N)cc5cccc(Cl)c45)ncc23)C1` [Example 38, 1-((R)-3-((7-(3-amino-8-chloroisoquinolin-1-yl)-8-fluoro-2-(((2R,7aS)-2-fluorohexahydro-1H-pyrrolizin-7a-yl)methoxy)pyrido[4,3-d]pyrimidin-4-yl)(methyl)amino)pyrrolidin-1-yl)-4-(dimethylamino)but-2-yn-1-one], the 50% inhibitory concentration (IC50) was < 10 nM.

`C=CC(=O)N1CC[C@@H](N(C)c2nc(OC[C@@]34CCCN3C[C@H](F)C4)nc3c(F)c(-c4nc(N)ccc4C(F)(F)F)ncc23)C1` [Example 46, 1-((R)-3-((7-(6-amino-3-(trifluoromethyl)pyridin-2-yl)-8-fluoro-2-(((2R,7aS)-2-fluorotetrahydro-1H-pyrrolizin-7a(5H)-yl)methoxy)pyrido[4,3-d]pyrimidin-4-yl)(methyl)amino)pyrrolidin-1-yl)prop-2-en-1-one]: the half-maximal inhibitory concentration (IC50) was 100 to 500 nM.

The molecule `CC(C)c1noc(/C=C/C(=O)N2CC[C@@H](N(C)c3nc(OC[C@@]45CCCN4C[C@H](F)C5)nc4c(F)c(-c5nc(N)ccc5C(F)(F)F)ncc34)C2)n1` [Example 47, (E)-1-((R)-3-((7-(6-amino-3-(trifluoromethyl)pyridin-2-yl)-8-fluoro-2-(((2R,7aS)-2-fluorotetrahydro-1H-pyrrolizin-7a(5H)-yl)methoxy)pyrido[4,3-d]pyrimidin-4-yl)(methyl)amino)pyrrolidin-1-yl)-3-(3-isopropyl-1,2,4-oxadiazol-5-yl)prop-2-en-1-one] yielded an IC50 of 10 to 100 nM.

`Cc1noc(/C=C/C(=O)N2CC[C@@H](N(C)c3nc(OC[C@@]45CCCN4C[C@H](F)C5)nc4c(F)c(-c5nc(N)ccc5C(F)(F)F)ncc34)C2)n1` [Example 48, (E)-1-((R)-3-((7-(6-amino-3-(trifluoromethyl)pyridin-2-yl)-8-fluoro-2-(((2R,7aS)-2-fluorotetrahydro-1H-pyrrolizin-7a(5H)-yl)methoxy)pyrido[4,3-d]pyrimidin-4-yl)(methyl)amino)pyrrolidin-1-yl)-3-(3-methyl-1,2,4-oxadiazol-5-yl)prop-2-en-1-one] yielded a half-inhibitory concentration (IC50) of 10 to 100 nM.

On to `Cc1cc(N)nc(-c2ncc3c(N4CCN(C#N)CC4)nc(OC[C@@]45CCCN4C[C@H](F)C5)nc3c2F)c1C(F)(F)F` [Example 49, 4-(7-(6-amino-4-methyl-3-(trifluoromethyl)pyridin-2-yl)-8-fluoro-2-(((2R,7aS)-2-fluorohexahydro-1H-pyrrolizin-7a-yl)methoxy)pyrido[4,3-d]pyrimidin-4-yl)piperazine-1-carbonitrile], for which the IC50 was in the range of 100 to 500 nM.

`Cc1cc(N)nc(-c2ncc3c(N(C)CC4CN(C(=O)/C=C/c5nc(C(C)C)no5)C4)nc(OC[C@@]45CCCN4C[C@H](F)C5)nc3c2F)c1C(F)(F)F` [Example 51, (E)-1-(3-(((7-(6-amino-4-methyl-3-(trifluoromethyl)pyridin-2-yl)-8-fluoro-2-(((2R,7aS)-2-fluorohexahydro-1H-pyrrolizin-7a-yl)methoxy)pyrido[4,3-d]pyrimidin-4-yl)(methyl)amino)methyl)azetidin-1-yl)-3-(3-isopropyl-1,2,4-oxadiazol-5-yl)prop-2-en-1-one]: the IC50 is < 10 nM.

In turn, `Cc1noc(/C=C/C(=O)N2CC[C@@H](N(C)c3nc(OC[C@@]45CCCN4C[C@H](F)C5)nc4c(F)c(-c5nc(N)cc(C)c5C)ncc34)C2)n1` [Example 52, (E)-1-((R)-3-((7-(6-amino-3,4-dimethylpyridin-2-yl)-8-fluoro-2-(((2R,7aS)-2-fluorotetrahydro-1H-pyrrolizin-7a(5H)-yl)methoxy)pyrido[4,3-d]pyrimidin-4-yl)(methyl)amino)pyrrolidin-1-yl)-3-(3-methyl-1,2,4-oxadiazol-5-yl)prop-2-en-1-one] registered an IC50 of 10 to 100 nM.

Consider `Cc1cc(N)nc(-c2ncc3c(N(C)[C@@H]4CCN(C(=O)/C=C/c5nc(C(C)C)no5)C4)nc(OC[C@@]45CCCN4C[C@H](F)C5)nc3c2F)c1C` [Example 53, (E)-1-((R)-3-((7-(6-amino-3,4-dimethylpyridin-2-yl)-8-fluoro-2-(((2R,7aS)-2-fluorotetrahydro-1H-pyrrolizin-7a(5H)-yl)methoxy)pyrido[4,3-d]pyrimidin-4-yl)(methyl)amino)pyrrolidin-1-yl)-3-(3-isopropyl-1,2,4-oxadiazol-5-yl)prop-2-en-1-one], for which the half-maximal inhibitory concentration (IC50) was 10 to 100 nM.

On to `C=CC(=O)N1CC(CN(C)c2nc(OC[C@@]34CCCN3C[C@H](F)C4)nc3c(F)c(-c4nc(N)ccc4C(F)(F)F)ncc23)C1` [Example 54, 1-(3-(((7-(6-amino-3-(trifluoromethyl)pyridin-2-yl)-8-fluoro-2-(((2R,7aS)-2-fluorohexahydro-1H-pyrrolizin-7a-yl)methoxy)pyrido[4,3-d]pyrimidin-4-yl)(methyl)amino)methyl)azetidin-1-yl)prop-2-en-1-one], for which the half-inhibitory concentration (IC50) lay within 100 to 500 nM.

The values above are taken from patent US20260256789A1, “METHODS FOR TREATMENT OF CANCER” (Frontier Medicines Corporation, priority 2022, published 2026).
